Values of other authors in publication PMC7696216, “Bi-Functional Alginate Oligosaccharide–Polymyxin Conjugates for Improved Treatment of Multidrug-Resistant Gram-Negative Bacterial Infections” (Pharmaceutics, 2020).

Settings: in vivo; cited from earlier work

For colistimethate sodium, the “plasma colistin concentration at steady-state” value is listed as 0.5 to 4 µg/mL.
